Earlier results in patent US20240035023A1, “COMPUTER IMPLEMENTED METHOD FOR E[…] FOR SYNTHESIS OF FL[…]” (Kcat Enzymatic Private Limited, priority 2022, published 2024).

Molecular target: fluorinase (Streptantibioticus cattleyicolor, UniProt Q70GK9)

## Nc1ncnc2c1ncn2[C@@H]1O[C@H](CSCC[C@H](N)C(=O)O)[C@@H](O)[C@H]1O [S-adenosyl-homocysteine]
  enzyme activity against the substrate: no activity
